The test system of test [1] is PPARγ2-mice and LacZ-mice. In words: Bupranolol loading test (serum FFA). The note with it: fed state, 10 mg/kg intraperitoneal. Type of test: in vivo. As for the experimental part:
(A) Plasma lipid parameters (left: total cholesterol, middle: triglyceride (TG), right: free fatty acids (FFA)) in LacZ-mice (white bars) and PPARγ2-mice (black bars) on day 7 after adenoviral administration were measured in the 10 hour fasted state. (B-C) Relative amounts of UCP1 (left), PGC-1α (middle) and HSL (right) in brown adipose tissue (B) and epididymal fat tissue (C) from ad libitum-fed LacZ-mice (white bars) and PPARγ2-mice (black bars) on day 7 after adenoviral administration. (D) A pan-β adrenergic blocker, bupranolol, was injected intraperitoneally into LacZ-mice (open circles) and PPARγ2-mice (closed circles) in the fed state, on day 5 after adenoviral administration, followed by measurement of serum FFA levels. Data were expressed as percentages of serum FFA levels immediately before intraperitoneal bupranolol loading (10 mg/kg of body weight). Date are presented as mean±SD. **P<0.01 and *P<0.05, compared to control mice, by unpaired t test.
Glucose tolerance tests were performed on mice fasted for 10 hours as previously described (Y. Ishigaki et al., Diabetes 54, 322 (2005)). Insulin tolerance tests were performed on ad libitum fed mice. […] Serum FFA levels were measured immediately before and at 30 and 60 min after injection of inraperitoneal bupranolol (10 mg/kg of body weight, Kaken Pharmaceutical Co., Ltd. Tokyo, Japan).

Test [2] concerns Male SD rats with high fat diet-induced obesity. In words: Perivagal capsaicin or vehicle 7 days prior to LacZ or PPARγ2 adenovirus. Type of test: in vivo. To be noted: perivagal capsaicin treatment. The protocol: Table 1. Afferent vagal activation from the liver is involved in remote effects of hepatic PPARγ2 expression. (Upper Column) Mice were subjected to hepatic vagotomy or sham operation 7 days prior to administration of LacZ or PPARγ2 adenovirus. Resting oxygen consumption (VO2) was measured on day 3 after adenoviral injection. Mice were sacrificed after a 10 hour fast on day 7 after adenoviral injection. (Lower Column) Male SD rats with high fat diet-induced obesity were subjected to application of capsaicin or vehicle to the vagal hepatic branch 7 days prior to administration of LacZ or PPARγ2 adenovirus. Seven days after adenoviral administration, epididymal fat weights were determined. P values: compared to LacZ-mice, by unpaired t test. n.s.: not significant.
Hepatic vagotomy involves dissection of both afferent and efferent vagal branches innervating the liver. To determine whether the remote effects of hepatic PPARγ2 expression are mediated by the afferent vagus, we applied a specific afferent neurotoxin, capsaicin, to the hepatic branch of the vagus of diet-induced obese male SD rats. Seven days after perivagal application of capsaicin or vehicle, we administered recombinant adenovirus encoding LacZ or PPARγ2. […] These observations indicate selective de-afferentation of the hepatic branch of the vagus. […]

In test [3] the test system is hepatic branch of the vagus. Briefly: Perivagal capsaicin: vagal nerve immunohistochemistry and transmission electron microscopy. To be noted: 7 days after perivagal application. Type of test: in vivo, rats. As for the experimental part: SD rats were treated with perivagal application of vehicle or capsaicin, 7 days prior to removal of the hepatic vagal nerves from vehicle-treated rats (veh) and capsaicin-treated rats (cap), and the esophgeal branch of the posterior vagal trunk from capsaicin-treated rats (eso). (A) Immunohistochemistry of the vagal nerves with anti-calcitonin gene-related peptide (CGRP) and anti-S100 antibodies. Magnification: ×400. The graphs show immunohistological staining intensities and the data are expressed as percentages of the intensities in vehicle-treated vagal nerve. (B) Transmission electron microscopy of the vagal nerves. While myelinated fibers are intact (arrows), unmyelinated fibers have been selectively degraded in perivagal capsaicin-treated nerves (arrowheads). Representative images from two rats of each group are shown.
After 4 weeks of a high-fat diet starting at 5 weeks of age, male SD rats were subjected to selective hepatic vagal afferent blockade. The hepatic branch of this vagal trunk was exposed as described above, then loosely tied with a cotton string immersed with or without capsaicin (Sigma Chemical Co, St Louis, Mo., USA) dissolved in olive oil (5% wt/vol). The cotton string was removed 30 min later and the abdominal incision was closed. Seven days after perivagal application of capsaicin or vehicle, recombinant adenovirus encoding LacZ or PPARγ2, at a dose of 6.5×10^8 plaque forming units (PFU), was injected via the tail vein.
Livers, WAT and BAT were removed and fixed with 10% formalin and embedded in paraffin. Tissue sections were stained with hematoxylin eosin. Total adipocyte areas were traced manually. Brown and white adipocyte diameters were measured in 150 or more cells per mouse in each group. For vagal nerve immunohistochemistry, SD rats were anesthetized with pentobarbiturate (60 mg/kg), and then perfused transcardially with saline and sequentially with 4% paraformaldehyde in 0.2 M phosphate buffer (PB; pH 7.4). […] The intensities of bands were quantified with the NIH image 1.62 program. […]

This note sets out measurements from patent publication US7815895B2, “Method for activating efferent sympathetic nerves innervating adipose tissues to improve obesity and symptoms associated therewith” (priority 2007, dated 2010).

As for `Cc1ccc(Cl)c(OCC(O)CNC(C)(C)C)c1` (stereo not drawn) [bupranolol], the “serum FFA” value in test [1] (LacZ-mice) is on record as “no effect”; in test [1] (PPARγ2-mice), “decreased”.
As to `COc1cc(CNC(=O)CCCC/C=C/C(C)C)ccc1O` [capsaicin], in test [2], the “hepatic PPARγ2 expression-induced decrease in WAT weight” value is listed as “completely blocked”. The “unmyelinated fibers in the vagal hepatic branch (electron microscopy)” value in test [3] was “selective degradation”. Moreover, in test [3] (versus vehicle), the “Expression of calcitonin gene-related peptide in vagal nerve” value was “markedly decreased” and the “immunoreactivity for S100 proteins” value is given as “similar”.
